Results: patent US20120136050A1, “USE OF A MELATONIN AGONIST FOR THE TREATMENT OF SLEEP DISORDERS INCLUDING PRIMARY INSOMNIA” (VANDA PHARMACEUTICALS INC., priority 2009, published 2012)
“Also recorded” adds a separate entry of the source.

Columns and labels:
[1] = Solubility in solvents and water; type: physicochemical
[2] = test system: circadian sleep-wake cycle; assay: Clinical trial CN116-002, effects on the circadian sleep-wake cycle; type: in vivo, human; details: 50 mg
Description: (§1) The oral doses selected were based on safety and efficacy data obtained from previous Compound A pre-clinical and clinical trials. […] Though not optimally designed to assess the chronobiotic potential of Compound A, clinical trial CN116-002 measured the effects Compound A on the circadian sleep-wake cycle. […] The doses selected for the study (10 mg, 20 mg, 50 mg, and 100 mg) were within the expected dose range for efficacy. The safety of the selected doses for this study is supported by previous clinical studies. […] The highest dose in the study, 100 mg, is well within the safety margin established in both Phase I single and multiple ascending dose trials and in a Phase II study.

[3] = Particle size by laser diffraction (Malvern Mastersizer); type: physicochemical
Description: Particle size will also affect the dose selected. At larger particle sizes, i.e., D50 is greater than about 100 m, e.g., about 100 m to about 200 m oral doses at the higher end, i.e., up to about 100 mg are effective, whereas at smaller particle sizes, i.e., D50 is less than about 100 m, e.g., about 20 m to about 50 m, lower doses, i.e., less than about 100 mg, are useful, e.g., about 10 mg to about 80 mg and about 20 mg to about 50 mg. (Particle size measurements supporting the above were made laser diffraction using a Malvern Mastersizer. The D50 (D10, D90, D100) value means that 50% (10%, 90%, 100%) of the particles by weight are of the indicated diameter or smaller.) In one embodiment of the invention, the above doses are administered in immediate release form, i.e., a non-controlled release formulation.

[4] = Plasma exposure after oral administration (Cmax, AUC); type: in vivo, human
[5] = test system: patients with chronic primary insomnia; assay: Phase III placebo-controlled 4-week trial in chronic primary insomnia (PSG); type: in vivo, human; details: for fell asleep faster than placebo group (PSG): first night of treatment, p<0.001
Description: A phase III, multi-center, placebo-controlled, 4-week trial evaluated 322 patients with chronic primary insomnia. Patients were randomized to receive either 20 mg or 50 mg of Compound A or placebo over the course of four weeks. The primary endpoint consisted of the evaluation of the immediate and short-term (average of Nights 1 and 8) ability of Compound A to improve sleep onset as measured by Latency to Persistent Sleep (LPS) through polysomnography (PSG). Secondary endpoints evaluated Compound A's ability to maintain improvements on sleep onset after long-term (average of Nights 22 and 29) use of the compound as well as measures of sleep duration (Total Sleep Time, TST) and sleep maintenance (Wake After Sleep Onset, WASO). Patients were eligible for the study if symptoms of insomnia were chronic and LPS was greater than 30 minutes.

[6] = test system: healthy male and female subjects with induced transient insomnia; assay: Example 2: single oral dose study in induced transient insomnia (PSG); type: in vivo, human
Description: A multi-center, randomized, double-blind, placebo-controlled, parallel-group study was conducted to investigate the efficacy and safety of single oral doses of VEC-162 (20 mg, 50 mg, and 100 mg) and matching placebo in healthy male and female subjects with induced transient insomnia. Approximately four hundred subjects were randomized in approximately a 1:1:1:1 ratio to the treatment groups.
In general, a screening period began 14 to 35 days prior to the start of the evaluation period, which was Day 1. Prior to Day 1, subjects were asked to increase their sleep time to 9 hours per night. Drug, or placebo, was administered on Night 1, approximately 0.5 hour prior to lights off.
The primary efficacy variable was LPS. LPS is defined as the length of time elapsed between lights off and onset of persistent sleep. In this trial, persistent sleep is defined as the point at which 10 minutes of uninterrupted sleep has begun. Sleep was determined on the basis of polysomnography (PSG).
Wake After Sleep Onset (WASO): WASO is defined as the time spent awake between onset of sleep and Lights On during Night 1, determined by PSG.
Latency to Non-Awake (LNA): LNA is defined as the number of minutes to reach any stage of sleep.
Total Sleep Time (TST): TST is defined as the number of minutes spent asleep during the entire time in bed.

[7] = test system: healthy volunteers; assay: Previous Phase I single and multiple ascending dose studies, safety and tolerability; type: in vivo
Description: (§2) A 28-day Phase II study was also conducted to investigate the effects of Compound A in elderly patients with primary insomnia. […] While patients with the lowest melatonin levels ([…]) may have benefited from Compound A treatment more than placebo, the design of this study made it difficult to interpret the effects of Compound A on the sleep-wake cycle.
as §1

[8] = test system: elderly patients with primary insomnia; assay: 28-day Phase II study in elderly patients with primary insomnia; type: in vivo, human
Description: as §2

[9] = material used in Example 1 study
[10] = material used in Example 2 study, material used in sleep latency study
[11] = 20 mg, Nights 1 and 8 vs baseline, p<0.001 vs placebo
[12] = 20 mg, Nights 22 and 29 vs baseline, nss
[13] = 20 mg, Nights 22 and 29 vs baseline, p<0.001 vs placebo
[14] = 50 mg, Nights 1 and 8 vs baseline, p<0.001 vs placebo
[15] = 50 mg, Nights 22 and 29 vs baseline, nss
[16] = 50 mg single oral dose, p<0.001
[17] = single oral dose, conclusion from Examples 1 and 2

## CCC(=O)NC[C@@H]1C[C@H]1c1cccc2c1CCO2 [Compound A, N-[[(1R,2R)-2-(2,3-dihydro-1-benzofuran-4-yl)cycloproply]methyl]propanamide]
[1]
  dependence of aqueous solubility on pH: practically unaffected by pH
[1]; 95% ethanol, methanol, acetonitrile, ethyl acetate, isopropanol, polyethylene glycols (PEG-300 and PEG-400)
  solubility in organic solvents: very soluble or freely soluble
[1]; saturated solution in water
  native pH of a saturated solution in water: 8.5
[1]; water
  solubility in water: only slightly soluble
[2]
  effect on circadian rhythms: consistently shifted circadian rhythms
[3]; [9]
  particle size D10: 10 µm
  particle size D50: 115 µm
  particle size D90: 316 µm
  particle size D100: 631 µm
[3]; [10]
  particle size D10: 5 µm
  particle size D50: 25 µm
  particle size D90: 72 µm
  particle size D100: 316 µm
[4]; age, weight, height, gender, creatinine clearance, or ALT baseline levels
  effect of covariates on exposure levels: not affected
[4]; oral doses 10 to 100 mg
  AUC increase with dose: approximately proportional to dose
  Cmax increase with dose: approximately proportional to the dose
[5]; 20 mg or 50 mg over four weeks
  tolerability and safety profile: well-tolerated and exhibited a safety profile generally similar to placebo
[5]; 20 mg, Nights 1 and 8 vs baseline, nss
  mean WASO improved by: 12.2 min
[5]; [11]
  mean LPS improved by: 45.0 min
  mean TST during the first third of the night improved by: 40.9 min
[5]; 20 mg, Nights 1 and 8 vs baseline, p<0.01 vs placebo
  mean WASO during the first third of the night improved by: 2.3 min
[5]; 20 mg, Nights 1 and 8 vs baseline, p=0.089 vs placebo
  mean TST improved by: 51.4 min
[5]; [12]
  mean WASO during the first third of the night improved by: 3.1 min
  mean WASO improved by: 17.7 min
[5]; [13]
  mean LPS improved by: 49.4 min
  mean TST during the first third of the night improved by: 45.2 min
[5]; 20 mg, Nights 22 and 29 vs baseline, p=0.057 vs placebo
  mean TST improved by: 60.3 min
[5]; 20 mg
  fell asleep faster than placebo group (PSG): 22.9 min
[5]; 50 mg, Nights 1 and 8 vs baseline, nss
  mean WASO improved by: 14.1 min
[5]; [14]
  mean LPS improved by: 46.4 min
  mean TST during the first third of the night improved by: 39.4 min
[5]; 50 mg, Nights 1 and 8 vs baseline, p<0.05 vs placebo
  mean WASO during the first third of the night improved by: 1.8 min
[5]; 50 mg, Nights 1 and 8 vs baseline, p=0.074 vs placebo
  mean TST improved by: 52.0 min
[5]; [15]
  mean WASO during the first third of the night improved by: 1.8 min
  mean WASO improved by: 10.2 min
[5]; 50 mg, Nights 22 and 29 vs baseline, nss vs placebo
  mean TST improved by: 48.6 min
[5]; 50 mg, Nights 22 and 29 vs baseline, p<0.01 vs placebo
  mean TST during the first third of the night improved by: 40.1 min
[5]; 50 mg, Nights 22 and 29 vs baseline, p=0.016 vs placebo
  mean LPS improved by: 45.1 min
[5]; 50 mg
  fell asleep faster than placebo group (PSG): 25.9 min
[6]; 20 mg single oral dose, p<0.001
  Latency to Persistent Sleep (LPS): Improvement compared with placebo: 21.5 min
[6]; 20 mg single oral dose, p<0.002
  Total Sleep Time (TST): Improvement compared with placebo: 33.7 min
[6]; 20 mg single oral dose, p<0.006
  Latency to Non-Awake (LNA): Improvement compared with placebo: 11.1 min
[6]; 20 mg single oral dose, p<0.02
  Wake After Sleep Onset (WASO): Improvement compared with placebo: 24.2 min
[6]; [16]
  Latency to Non-Awake (LNA): Improvement compared with placebo: 14.3 min
  Latency to Persistent Sleep (LPS): Improvement compared with placebo: 26.3 min
  Total Sleep Time (TST): Improvement compared with placebo: 47.9 min
[6]; 50 mg single oral dose, p=0.001
  Wake After Sleep Onset (WASO): Improvement compared with placebo: 33.7 min
[6]; 100 mg single oral dose, p<0.001
  Latency to Persistent Sleep (LPS): Improvement compared with placebo: 22.8 min
[6]; 100 mg single oral dose, p<0.002
  Latency to Non-Awake (LNA): Improvement compared with placebo: 12.3 min
[6]; 100 mg single oral dose, p<0.005
  Total Sleep Time (TST): Improvement compared with placebo: 29.6 min
[6]; 100 mg single oral dose, p=0.081
  Wake After Sleep Onset (WASO): Improvement compared with placebo: 17.5 min
[6]; all doses (20 mg, 50 mg, 100 mg)
  tolerability: well-tolerated
[6]; [17]
  efficacy of 20 mg relative to 100 mg: comparable or superior to 100 mg
  efficacy of 50 mg relative to 100 mg: more efficacious than 100 mg
[7]; doses up to 150 mg daily for 28 days, healthy subjects (b53 also elderly subjects with chronic insomnia)
  safety and tolerability, multiple doses: well-tolerated; also recorded: safety and tolerability of Compound A at doses up to 150 mg has been demonstrated
[7]; healthy subjects, single oral dose of 1 mg to 300 mg
  safety and tolerability, single dose: safe and well tolerated
[8]
  number of nocturnal awakenings versus placebo: did not differentiate from placebo
  sleep latency versus placebo: did not differentiate from placebo
